Test results from patent US20230414602A1, “PHARMACEUTICAL COMPOSITION COMPRISING INSOLUBLE CAMPTOTHECIN COMPOUND-CONTAINING NANOPARTICLE FOR TREATMENT OF CANCER AND COMBINATION THERAPY THEREOF” (SNBioScience Inc., priority 2020, published 2023).
Structures can show the parent of a compound that is named as a salt.

Legend:
MDA-MB-231 = assay: Breast cancer MDA-MB-231 xenograft, tumor volume and TGI (Example 4); format: in vivo, BALB/c nu/nu male mice; conditions: docetaxel 5->15 mg/kg, SNB-101 20 mg/kg (as SN-38), i.v. Q1W x 6
Experimental: (§1) The thawed cells were cultured for one week or longer, with passages every two or three days. The cells were assayed for viability (trypan blue) and infection with bacteria and yeasts (cell images) and mycoplasma (MycoAlert Mycoplasma detection kit).
(§2) Tumor volume and body weight were measured twice a week (intervals of 3 or 4 days) from the time of grouping to the end of the test, and a tumor growth curve was constructed from the start of drug administration to the end of the test.
(§3) As of the end of the experiment, relative tumor growth inhibition (TGI) to the vehicle was calculated using the following equation.
Tumor growth inhibition (TGI) (%)={1−(ΔT/ΔC)}×100 Equation 2

[1] = Body weight of MDA-MB-231 xenograft mice (Example 4); format: in vivo, BALB/c nu/nu male mice
Experimental: as §2

A549 = assay: Lung cancer A549 xenograft, tumor volume and TGI (Example 4); format: in vivo, BALB/c nu/nu male mice; conditions: docetaxel 5->10 mg/kg, SNB-101 20 mg/kg (as SN-38), i.v. Q1W x 5
Experimental: as §1, §2, §3
Tumor growth inhibition (TGI)(%)={1−(ΔT/ΔC)}×100 Equation 2

[2] = Body weight of A549 xenograft mice (Example 4); format: in vivo, BALB/c nu/nu male mice
Experimental: as §2

[3] = Body weight of AsPC-1 xenograft mice (Example 2); format: in vivo, BALB/c nu/nu male mice
AsPC-1 cells = assay: AsPC-1 pancreatic cancer xenograft, tumor volume and tumor weight (Example 2); conditions: excised day 22; nab-paclitaxel 5, irinotecan HCl 50, SNB-101 low dose 10/15.9 mg/kg/day
Text: As a pancreatic cancer cell line for a pancreatic cancer xenograft model, AsPC-1 was used. AsPC-1 cells are aggressive cells and are known to have resistance to gemcitabine.

[4] = tested on: HT-29 colorectal cancer cells; assay: HT-29 colorectal cancer xenograft, tumor volume (Example 5); format: in vivo, BALB/c nude mice
Text: A total of 150 BALB/c nude mice (5-week-old males) were obtained and acclimatized for about one week before transplantation of HT-29 colorectal cancer cells into the subcutaneous area of the right hip. […] after transplantation, 50 mice were selected on the basis of the tumor volume and classified into five groups of 10.
[…] after transplantation of the HT-29 colorectal cancer cells, mice were selected based on the tumor volume and randomly divided into 5 groups (10 mice/group). The drug administration group was set as in Table 13, below.
An autopsy was performed on day 28. A 5% dextrose solution used as a vehicle for the control was equally administered at a dose of 10 mL/kg.
Test results are expressed as mean±S.D. in Table 14, below.

CC(=O)O[C@@]12CO[C@@H]1C[C@H](O)[C@@]1(C)C(=O)[C@H](O)C3=C(C)[C@@H](OC(=O)[C@H](O)[C@@H](NC(=O)OC(C)(C)C)c4ccccc4)C[C@@](O)([C@@H](OC(=O)c4ccccc4)[C@H]21)C3(C)C [Docetaxel, docetaxel]
average tumor volume (MDA-MB-231; end of experiment (35 days after drug administration)): 1,228.93 mm3
TGI (%) (MDA-MB-231; relative to vehicle, end of experiment (day 35)): 27.6%
Body weight at the start of drug administration (day 0) ([1]; day 0, MDA-MB-231 xenograft mice): 19.63 g
Body weight at the end of the test (day 35) ([1]; day 35, docetaxel 5->15 mg/kg, SNB-101 20 mg/kg (as SN-38), i.v. Q1W x 6): 20.25 g
average tumor volume (A549; end of experiment (37 days after drug administration)): 402.70 mm3
TGI (%) (A549; relative to vehicle, end of experiment (day 37)): 50.0%
Body weight at the start of drug administration (day 0) [2]: 17.93 g

CCc1c2c(nc3ccc(OC(=O)N4CCC(N5CCCCC5)CC4)cc13)-c1cc3c(c(=O)n1C2)COC(=O)[C@]3(O)CC [Irinotecan HCl, irinotecan hydrochloride]
Body weight, Day 0 ([3]; Day 0, i.v., nab-paclitaxel 5, irinotecan HCl 50, SNB-101 low dose 10/15.9 mg/kg/day (SN-38/irinotecan HCl)): 21.3 ± 0.9 g
Body weight, Day 3 ([3]; Day 3, i.v., nab-paclitaxel 5, irinotecan HCl 50, SNB-101 low dose 10/15.9 mg/kg/day): 22.1 ± 1.1 g
Body weight, Day 7 ([3]; Day 7, i.v., nab-paclitaxel 5, irinotecan HCl 50, SNB-101 low dose 10/15.9 mg/kg/day): 22.8 ± 1.1 g
Body weight, Day 11 ([3]; Day 11, i.v., nab-paclitaxel 5, irinotecan HCl 50, SNB-101 low dose 10/15.9 mg/kg/day): 22.9 ± 1.2 g
Body weight, Day 14 ([3]; Day 14, i.v., nab-paclitaxel 5, irinotecan HCl 50, SNB-101 low dose 10/15.9 mg/kg/day): 23.4 ± 1.2 g
Body weight, Day 17 ([3]; Day 17, i.v., nab-paclitaxel 5, irinotecan HCl 50, SNB-101 low dose 10/15.9 mg/kg/day): 22.9 ± 1.2 g
Body weight, Day 21 ([3]; Day 21, i.v., nab-paclitaxel 5, irinotecan HCl 50, SNB-101 low dose 10/15.9 mg/kg/day): 22.6 ± 1.2 g
Body weight, Day 22 ([3]; Day 22 (autopsy), i.v., nab-paclitaxel 5, irinotecan HCl 50, SNB-101 low dose 10/15.9 mg/kg/day): 21.7 ± 1.3 g
weight loss rate compared to G1 (vehicle group) ([3]; day 22, nab-paclitaxel 5, irinotecan HCl 50, SNB-101 low dose 10/15.9 mg/kg/day): 10.0%
Tumor weight (AsPC-1 cells): 0.489 ± 0.101 g

Bevacizumab: monoclonal antibody and target anticancer drug (trade name Avastin)
Tumor volume (mm^3) Test start A (day 1) ([4]; day 1, SNB-101 20/31.8 mg/kg venous, bevacizumab 5 mg/kg peritoneal, irinotecan 50 mg/kg venous, days 1, 4, 7): 96.67 ± 14.79 mm^3
Tumor volume (mm^3) Test end B (day 28) ([4]; day 28, SNB-101 20/31.8 mg/kg venous, bevacizumab 5 mg/kg peritoneal, irinotecan 50 mg/kg venous, days 1, 4, 7): 709.38 ± 266.87 mm^3
Tumor Volume Change (mm^3) [B − A] ([4]; day 28 minus day 1, SNB-101 20/31.8, bevacizumab 5, irinotecan 50 mg/kg): 612.71 ± 259.64 mm^3
